The series can be described thus: Metabolic clearance in HLM (hepatic clearance profile, Clint, app). In kind it is in vitro ADME, human.

Turning to `CCOc1cccnc1Oc1cncc(-c2ncc(C(=O)NC(C)(C)CO)cn2)c1` [Example 5, 2-(5-((3-Ethoxypyridin-2-yl)oxy)pyridin-3-yl)-N-(1-hydroxy-2-methylpropan-2-yl)pyrimidine-5-carboxamide], the “CIint, app in HLM” value was determined as 18 µL/min/mg.

Regarding `CCOc1ccccc1O[C@@H]1CCCN(c2ncc(C(=O)NC(C)(C)CO)cn2)C1` [WO2015140658 Example 19.21], the “CIint, app in HLM” value was 121 µL/min/mg.

These data come from patent US11034678B2, “Diacylglycerol acyl transferase 2 inhibitors” (Pfizer Inc., priority 2016, dated 2021).
